From PubChem BioAssay (NCI) come the findings set out here.

Test systems include TK-10 renal; 786-0 renal; SN12C renal; RPMI-8226 leukemia; DU-145 prostate; SNB-75 CNS; HS 578T breast; NCI/ADR-RES ovarian; KM12 colon; SK-MEL-5 melanoma; SNB-19 CNS; MALME-3M melanoma; U251 CNS; NCI-H522 lung; COLO 205 colon; SW-620 colon; ACHN renal; OVCAR-3 ovarian; CAKI-1 renal; BT-549 breast.
What all share (assay): growth of human tumour cells (NCI), 48 h

The structures appear in SMILES notation.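 Dose response: 5 concentrations. Exposure: 48 h. Format: 96-well plates. Endpoint: linear interpolation; highest concentration if not reached. Definition used: TGI = concentration required for complete inhibition of growth.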 Where a SMILES comes first, the peptide text is derived from it. [ ]: non-standard residue; d: D form. ξ: configuration not given here. ξLac(3-iPr) = CC(C)CC(O)C(=O)O; NMeV = CN[CH](C(=O)O)C(C)C; NMeA = CN[CH](C)C(=O)O; βAla = NCCC(=O)O

Consider `CC1(C)N=C(N)N=C(N)N1c1cccc(C(=O)Nc2ccc(S(=O)(=O)F)cc2)c1`, for which the TGI with TK-10 renal, in the assay with 786-0 renal, with SN12C renal, in the assay on RPMI-8226 leukemia, in the assay on DU-145 prostate and in the assay on SNB-75 CNS was > 100 µM each time. Besides, the TGI in the assay with HS 578T breast, with NCI/ADR-RES ovarian, with KM12 colon, with SK-MEL-5 melanoma, in the assay with SNB-19 CNS and in the assay with MALME-3M melanoma was > 100 µM each time. Also, the TGI in the assay on U251 CNS, with NCI-H522 lung, with COLO 205 colon, with SW-620 colon, with ACHN renal and with OVCAR-3 ovarian was > 100 µM throughout. Further, the TGI with CAKI-1 renal and in the assay with BT-549 breast was > 100 µM in each case.
With `C[C@]12CC[C@@H]3c4ccc(O)cc4CC[C@H]3[C@@H]1CC[C@@H]2OC(=O)CCc1ccccc1`, the TGI in the assay with TK-10 renal is 33.9 µM; in the assay with 786-0 renal, > 100 µM; in the assay with SN12C renal it was 49.6 µM; with RPMI-8226 leukemia, 35.6 µM; with DU-145 prostate, 43 µM; with SNB-75 CNS it was 33.8 µM. The TGI came to 17.9 µM in the assay on HS 578T breast; 33.8 µM with NCI/ADR-RES ovarian; 78.7 µM in the assay with KM12 colon; 33.7 µM in the assay with SK-MEL-5 melanoma; 37.7 µM in the assay with SNB-19 CNS; 34.8 µM in the assay with MALME-3M melanoma. In addition, the TGI with U251 CNS came to 38.1 µM; in the assay on NCI-H522 lung it was 32.9 µM; in the assay on COLO 205 colon, 37.1 µM; in the assay with SW-620 colon, 64.7 µM; with ACHN renal, 35.5 µM; in the assay with OVCAR-3 ovarian, 61.6 µM. Further, the TGI with CAKI-1 renal came to 37.7 µM; in the assay with BT-549 breast, 34.2 µM.
Consider `CO/N=C\c1cc(O)c(O)c(/C=N/OC)c1`, for which the TGI is > 100 µM in the assay on TK-10 renal; > 100 µM with SN12C renal; > 100 µM in the assay with RPMI-8226 leukemia; > 100 µM in the assay on DU-145 prostate; > 100 µM in the assay with SNB-75 CNS; 71.1 µM in the assay on HS 578T breast. Besides, the TGI with NCI/ADR-RES ovarian, in the assay on KM12 colon, in the assay with SK-MEL-5 melanoma, with SNB-19 CNS, with MALME-3M melanoma and with U251 CNS was > 100 µM throughout. Also, the TGI in the assay on NCI-H522 lung, in the assay with COLO 205 colon, in the assay on SW-620 colon, in the assay on ACHN renal, with OVCAR-3 ovarian and in the assay on CAKI-1 renal was > 100 µM throughout. In addition, in the assay on BT-549 breast, the TGI was > 100 µM.
As for `O=C1C=CC(=O)c2c(O)c(Br)c(Br)c(O)c21`, the TGI was 6.12 µM in the assay with TK-10 renal; 3.32 µM with 786-0 renal; 18.4 µM in the assay on SN12C renal; 3.42 µM with RPMI-8226 leukemia; 25.9 µM with DU-145 prostate; 38.4 µM in the assay with SNB-75 CNS. The TGI in the assay on HS 578T breast is 69.1 µM; with NCI/ADR-RES ovarian, 58.7 µM; in the assay with KM12 colon, 16.7 µM; in the assay with SK-MEL-5 melanoma it was 27.2 µM; in the assay with SNB-19 CNS, 33.1 µM; in the assay with MALME-3M melanoma, 2.54 µM. Besides, the TGI was 33.7 µM in the assay on U251 CNS; 2.46 µM in the assay with COLO 205 colon; 3.44 µM with SW-620 colon; 5.99 µM in the assay with ACHN renal; 15.8 µM in the assay on OVCAR-3 ovarian; 27.1 µM in the assay with BT-549 breast.
With `CCN(CC)c1ccc2nc3ccc(N=Nc4c(O)ccc5ccccc45)cc3[n+](-c3ccccc3)c2c1`, the TGI in the assay on TK-10 renal, in the assay with 786-0 renal, with SN12C renal, in the assay with RPMI-8226 leukemia, in the assay with DU-145 prostate and in the assay with SNB-75 CNS was > 100 µM throughout. Also, the TGI with HS 578T breast, in the assay with NCI/ADR-RES ovarian, in the assay on KM12 colon, with SK-MEL-5 melanoma, with SNB-19 CNS and with MALME-3M melanoma was > 100 µM each time. Besides, the TGI with U251 CNS, in the assay with NCI-H522 lung, in the assay on COLO 205 colon, with SW-620 colon, in the assay on ACHN renal and with OVCAR-3 ovarian was > 100 µM each time. Moreover, the TGI in the assay with CAKI-1 renal and in the assay on BT-549 breast was > 100 µM throughout.
Take `CCOC(=O)c1c(C)n(C)c2c1cc(O)c1[nH]c3c(c12)CCCC3`: the TGI with TK-10 renal was 60.9 µM; in the assay with 786-0 renal it was 42.3 µM; in the assay on SN12C renal it was 61.3 µM; in the assay with RPMI-8226 leukemia it was 18.7 µM; with DU-145 prostate, > 100 µM; with HS 578T breast it was 87.4 µM. Moreover, the TGI with NCI/ADR-RES ovarian was 54 µM; in the assay on KM12 colon, 37.3 µM; with SK-MEL-5 melanoma, 25.6 µM; in the assay on SNB-19 CNS, > 100 µM; with MALME-3M melanoma, 31.7 µM; in the assay with U251 CNS, 36.8 µM. Also, the TGI was 28.7 µM in the assay with NCI-H522 lung; 23.5 µM in the assay with COLO 205 colon; 44.1 µM in the assay with SW-620 colon; > 100 µM in the assay on ACHN renal; 25.1 µM in the assay on OVCAR-3 ovarian; > 100 µM in the assay on CAKI-1 renal. Moreover, the TGI in the assay with BT-549 breast was > 100 µM.
`O=C(c1ccccc1)C1C(c2ccccc2)N1S(=O)(=O)c1ccccc1` (stereo not drawn): the TGI with TK-10 renal, with SN12C renal, with RPMI-8226 leukemia, in the assay on DU-145 prostate, with SNB-75 CNS and with HS 578T breast was > 100 µM in each case. For the same compound, the TGI with NCI/ADR-RES ovarian, with KM12 colon, in the assay with SK-MEL-5 melanoma, with MALME-3M melanoma, in the assay on U251 CNS and in the assay with NCI-H522 lung was > 100 µM in each case. Besides, the TGI in the assay on COLO 205 colon, in the assay with SW-620 colon, in the assay on OVCAR-3 ovarian, in the assay with CAKI-1 renal and in the assay on BT-549 breast was > 100 µM throughout.
As to `CCC(C)C1NC(=O)C2CCCN2C(=O)C(CC(C)C)OC(=O)CCNC(=O)C(C)N(C)C(=O)C(C(C)C)N(C)C1=O` (stereo not drawn) (cyclo([ξLac(3-iPr)]PI[NMeV][NMeA][βAla]); configuration not given here), the TGI in the assay with TK-10 renal is > 100 µM; in the assay on 786-0 renal, 17.6 µM; in the assay on SN12C renal, > 100 µM; in the assay on RPMI-8226 leukemia, 8.15 µM; in the assay with DU-145 prostate it was > 89.2 µM; with SNB-75 CNS it was > 86.8 µM. For the same compound, the TGI with HS 578T breast is > 96.3 µM; in the assay with NCI/ADR-RES ovarian, > 86.9 µM; in the assay with KM12 colon it was 45.5 µM; with SK-MEL-5 melanoma, 3.27 µM; with SNB-19 CNS, > 100 µM; in the assay with MALME-3M melanoma, 45.2 µM. In addition, the TGI in the assay with U251 CNS was > 100 µM; in the assay with NCI-H522 lung it was 60.2 µM; in the assay with COLO 205 colon it was 17.2 µM; with SW-620 colon, > 100 µM; in the assay with ACHN renal it was > 83.4 µM; with OVCAR-3 ovarian, > 100 µM. Also, the TGI in the assay with CAKI-1 renal was > 86.2 µM; in the assay with BT-549 breast, > 100 µM.
